# Test results from patent publication US6589991B1, “Therapeutic methods employing disulfide derivatives of dithiocarbamates and compositions useful therefor” (Medinox, Inc., priority 1998, dated 2003).
# “Also recorded” adds a separate entry of the source.
# What was measured:
# [1] = cited from earlier work
# diabetic-prone BB rats = system: diabetic-prone BB rats
# Procedure: FIG. 4 is a graph illustrating the effects of oral administration of L-proline dithiocarbamate on the survival of diabetic-prone BB rats. The percentage of survival was plotted against the age of the animals over 125 days. The treated group (n=30) (▪) received 5 mg/ml monomeric L-proline dithiocarbamate in drinking water, while the untreated group (n=31) (□) received only water.
# We tested the effectiveness of the oral administration of (L-PD) for the treatment of diabetic-prone BB rats, an animal model that is widely used for type I insulin-dependent diabetes. Type I diabetes is an autoimmune disease. the pathogenesis of this disease remains unclear although there is ample evidence for increased NO production at early stages of the disease (see, for example, G. M. Piper, Hypertension, 31: 1047-1060, 1998).
# Male, diabetic-prone BB rats (n=61, 250-280 g) were used for the study. The rats were distributed between untreated and L-PD treated groups. The treated group received 5 mg/ml L-PD in drinking water. The treatment started when the animals were 2 months old and continued until they were 4 months old. […] Percent survival was calculated by Product-Limit Survival Analysis Generalized Savage (Mantel-Cox) with p<0.01.
# Lewis rats = conditions: 10 mg/ml in drinking water; scored 0-6 from day 6; n=9
# Procedure: The test rats (▪) were given L-PD in drinking water (10 mg/ml). Control rats ([formula]) received only distilled water for drinking. Beginning on day 6, the left foot of the animals was scored for the development of arthritic disease using the following system: 0=no redness or inflammation, 1=one area of redness or inflammation on the foot less than 2 mm in diameter, 3=partial redness/inflammation of the footpad, 4=all of footpad red or inflamed, 5=criteria of 4 plus at least one toe red or inflamed, and 6=criteria of 4 plus toes inflamed and deformed (toes curling under footpad).
# After the subcutaneous injection in the right footpad of a suspension in mineral oil of heat killed M. tuberculosis on day 1, the Lewis rats were separated into two groups (n=9); one given L-PD (10 mg/ml) in the drinking water and the other given only distilled water. Beginning on day 6, the left foot of the animals was scored for the development of arthritic disease using the following system: 0=no redness or inflammation, 1=one area of redness or inflammation on the foot less than 2 mm in diameter, 3=partial redness/inflammation of the footpad, 4=all of footpad red or inflamed, 5=criteria of 4 plus at least one toe red or inflame, d, and 6=criteria of 4 plus toes inflamed and deformed (toes curling under footpad).
# [2] = Stability at pH 1 / stomach acid; format: physicochemical
# [3] = format: physicochemical; conditions: KCN in water; UV spectrum recorded immediately after mixing
# [4] = Conversion of the dithiocarbamate disulfide to the monomer by L-cysteine (UV spectrum); format: physicochemical; conditions: L-cysteine 5 mg/mL in 60 mM HEPES pH 7.4; disulfide 20 μg/mL; UV 190-340 nm
# Procedure: FIG. 2 is an illustration of the UV spectrum of N-methyl-D-glucamine dithiocarbamate disulfide (MGDD) (20 μg/mL)in the presence of L-cysteine (5 mg/mL). The spectrum was recorded with a scan range of 190 nm to 340 nm.
# FIG. 10 is an illustration of the UV spectrum measured on Hewlett Packard 8451A Diode Array Spectrophotometer. Scanning wavelength 190 nm-340 nm. One mL freshly prepared solution of L-cysteine (5 mg/mL) in 60 mM HEPES buffer, pH=7.4 is transferred into the UV cell (cell length 1 cm) plus 1 μl acetone and the absorbance of this solution is measured as a background. Added 1 μl stock solution of Pyrrolidine dithiocarbamate disulfide (PDD) in acetone to the cuvette—final concentration of PDD is 20 μg/mL. After mixing the UV spectrum is measured immediately.
# A freshly prepared solution of L-cysteine (5 mg/mL) in 60 mM HEPES buffer, pH 7.4 was transferred into a UV cell (cell length 1cm) plus 1 μl acetone and the absorbance of this solution was recorded as background. Immediately after the addition of Pyrrolidine dithiocarbamate disulfide (PDD) (final concentration of 20 μg/mL), the spectrum was recorded with a scan range of 190 nm to 340 nm.
smiles,measurement,setting,value
S=C(S)N1CCCC1 [Pyrrolidine dithiocarbamate],stability in the presence of stomach acid,[1],breaks down to ineffective species
"NC(=S)S.O=C(O)[C@@H]1CCCN1 [L-PD, L-proline dithiocarbamate]",animals surviving at the end of the experiments,"diabetic-prone BB rats; 5 mg/ml in drinking water for 2 months (age 2 to 4 months), untreated 10 percent, p<0.01",more than 30%
same,improvement in survival compared to the untreated group,"diabetic-prone BB rats; 5 mg/ml in drinking water, n=30, over 125 days",statistically significant
same,effect on water consumption,"diabetic-prone BB rats; chronic treatment, 5 mg/ml in drinking water",no apparent effect
same,severity score of the inflammation in the left footpad,Lewis rats,significantly reduced
"S=C(SSC(=S)N1CCCC1)N1CCCC1 [PDD, Pyrrolidine dithiocarbamate disulfide]",time stable at pH 1,[2],≤ 24 hours
same,reaction with potassium cyanide,[3],fast reaction
same,conversion to the monomeric dithiocarbamate on addition of L-cysteine,[4],"readily be converted into its starting material, pyrrolidine dithiocarbamate"
"CN(C[C@H](O)[C@@H](O)[C@H](O)[C@H](O)CO)C(=S)SSC(=S)N(C)C[C@H](O)[C@@H](O)[C@H](O)[C@H](O)CO [MGDD, N-methyl-D-glucamine dithiocarbamate disulfide]",reaction with potassium cyanide,[3],fast reaction
same,conversion to the monomeric dithiocarbamate on addition of L-cysteine,[4],"readily be converted into its starting material, MGD; also recorded: identical to that of N-methyl-D-glucamine dithiocarbamate"
